Converted amounts (≈) assume the structure as drawn. The source made the active and inactive calls. The rule behind the calls is not given here. Bridge positions count the residues as written; N and C are the ends. Square brackets hold non-standard residues; d marks the D form. Peptide text beside a SMILES is read from it. * marks the point of attachment. ξ: configuration not given here. Hexanoyl(4ξ-Me) = CCC(C)CCC(=O)*; dOrn = NCCC[C@@H](N)C(=O)O; Orn = NCCC[C@H](N)C(=O)O
How the values were obtained:
[1] = test system: Staphylococcus aureus; assay: Antibacterial activity against Staphylococcus aureus ATCC 25923 pretreated with ZnCl2 followed by compound addition and measured after 2 hrs by broth microdilution method (reference value: 8 microM); format: functional
[2] = Toxicity in male BALB/c mouse assessed as inflammatory cell infiltration in liver at 46.88 mg/kg, ip administered as single dose by H and E staining based analysis; format: organism-based; settings: in vivo
[3] = test system: Pseudomonas aeruginosa; assay: Induction of morphological changes in Pseudomonas aeruginosa ATCC 27853 assessed as adhesion at 2 times MIC measured after 0.5 hrs by SEM based analysis; format: functional, organism-based
[4] = test system: Staphylococcus aureus; assay: Induction of morphological changes in Staphylococcus aureus ATCC 25923 assessed as adhesion at 2 times MIC measured after 0.5 hrs by SEM based analysis; format: functional, organism-based
[5] = test system: Staphylococcus aureus; assay: Antibacterial activity against Staphylococcus aureus ATCC 25923 assessed as fold increase in MIC pretreated with MgCl2 followed by compound addition and measured after 2 hrs by broth microdilution method; format: functional
[6] = test system: Staphylococcus aureus; assay: Antibacterial activity against Staphylococcus aureus ATCC 25923 pretreated with 5% mouse serum followed by compound addition and measured after 1 hr by broth microdilution method (reference value: 8 microM); format: functional
[7] = test system: Staphylococcus aureus; assay: Induction of morphological changes in Staphylococcus aureus ATCC 25923 assessed as increase in volume of swelling at 2 times MIC measured after 2 hrs by SEM based analysis; format: functional, organism-based
[8] = Toxicity in male BALB/c mouse assessed as hemorrhage in liver at 46.88 mg/kg, ip administered as single dose by H and E staining based analysis; format: organism-based; settings: in vivo
[9] = test system: Staphylococcus aureus; assay: Antibacterial activity against Staphylococcus aureus ATCC 25923 pretreated with Mgcl2 followed by compound addition and measured after 2 hrs by broth microdilution method (reference value: 8 microM); format: functional
[10] = test system: Cell membrane; assay: Induction of cytoplasmic membrane depolarization in Pseudomonas aeruginosa ATCC 27853 assessed as increase in fluorescence intensity measured upto 12 min by DiSC3-5 dye based fluorescence method; format: cell membranes
[11] = test system: Staphylococcus aureus; assay: Antibacterial activity against Staphylococcus aureus ATCC 25923 pretreated with Kcl followed by compound addition and measured after 2 hrs by broth microdilution method (reference value: 8 microM); format: functional
[12] = test system: Pseudomonas aeruginosa; assay: Bactericidal activity against Pseudomonas aeruginosa ATCC 27853 assessed as assessed as eradication of bacterial cells at 1/2 to 1 times MIC measured after 0.5 hr by time killing analysis relative to control; format: functional
[13] = test system: Cell membrane; assay: Induction of outer membrane permeabilization in Pseudomonas aeruginosa ATCC 27853 assessed increase in fluorescence intensity at 1/2 to 4 times MIC measured upto 12 mins by fluorescence based NPN uptake assay; format: cell membranes
[14] = Toxicity in male BALB/c mouse assessed as inflammatory cell infiltration in kidney at 46.88 mg/kg, ip administered as single dose by H and E staining based analysis; format: organism-based; settings: in vivo
[15] = test system: Staphylococcus aureus; assay: Antibacterial activity against Staphylococcus aureus ATCC 25923 assessed as fold increase in MIC pretreated with FeCl3 followed by compound addition and measured after 2 hrs by broth microdilution method; format: functional
[16] = Toxicity in male BALB/c mouse assessed as survival rate at 62.6 mg/kg, ip measured after 6 days relative to control; format: organism-based; settings: in vivo, time 6 day
[17] = test system: Staphylococcus aureus; assay: Antibacterial activity against Staphylococcus aureus ATCC 25923 pretreated with 5% mouse serum followed by compound addition and measured after 6 hrs by broth microdilution method (reference value: 8 microM); format: functional
[18] = test system: Staphylococcus aureus; assay: Antibacterial activity against Staphylococcus aureus ATCC 25923 pretreated with Na-cl followed by compound addition and measured after 2 hrs by broth microdilution method (reference value: 64 microM); format: functional
[19] = test system: Pseudomonas aeruginosa; assay: Bactericidal activity against Pseudomonas aeruginosa ATCC 27853 assessed as assessed as eradication of bacterial cells at 2 to 4 times MIC measured after 0.5 hr by time killing analysis; format: functional, organism-based
[20] = test system: Staphylococcus aureus; assay: Antibacterial activity against Staphylococcus aureus ATCC 25923 pretreated with Zncl2 followed by compound addition and measured after 2 hrs by broth microdilution method (reference value: 64 microM); format: functional
[21] = test system: Cell membrane; assay: Induction of outer membrane permeabilization in Pseudomonas aeruginosa ATCC 27853 assessed increase in fluorescence intensity at 1 MIC measured upto 12 mins by fluorescence based NPN uptake assay; format: cell membranes
[22] = test system: Staphylococcus aureus; assay: Antibacterial activity against Staphylococcus aureus ATCC 25923 pretreated with 2.5% mouse serum followed by compound addition and measured after 1 hr by broth microdilution method (reference value: 64 microM); format: functional
[23] = test system: Staphylococcus aureus; assay: Antibacterial activity against Staphylococcus aureus ATCC 25923 pretreated with 5% mouse serum followed by compound addition and measured after 1 hr by broth microdilution method (reference value: 64 microM); format: functional
[24] = test system: Pseudomonas aeruginosa; assay: Antibacterial activity against Pseudomonas aeruginosa ATCC 27853 assessed as fold increase in MIC pretreated with 2.5 to 20% mouse serum followed by compound addition and measured after 1 hr by broth microdilution method; format: functional
[25] = test system: Staphylococcus aureus; assay: Antibacterial activity against Staphylococcus aureus ATCC 25923 assessed as fold increase in MIC pretreated with 2.5 to 20% mouse serum followed by compound addition and measured after 1 hr by broth microdilution method; format: functional
[26] = test system: Staphylococcus aureus; assay: Antibacterial activity against Staphylococcus aureus ATCC 25923 pretreated with Fecl3 followed by compound addition and measured after 2 hrs by broth microdilution method (reference value: 64 microM); format: functional
[27] = test system: Cell membrane; assay: Induction of cytoplasmic membrane depolarization in Staphylococcus aureus ATCC 25923 assessed as increase in fluorescence intensity at 1/2 to 4 times MIC measured within 1 min by DiSC3-5 dye based fluorescence method; format: cell membranes
[28] = test system: Staphylococcus aureus; assay: Antibacterial activity against Staphylococcus aureus ATCC 25923 pretreated with 10% mouse serum followed by compound addition and measured after 6 hrs by broth microdilution method (reference value: 16 microM); format: functional, organism-based
[29] = test system: Staphylococcus aureus; assay: Antibacterial activity against Staphylococcus aureus ATCC 25923 pretreated with ZnCl2 followed by compound addition and measured after 2 hrs by broth microdilution method (reference value: 16 microM); format: functional, organism-based
[30] = test system: Cell membrane; assay: Induction of outer membrane permeabilization in Pseudomonas aeruginosa ATCC 27853 assessed increase in fluorescence intensity measured after 12 mins by fluorescence based NPN uptake assay; format: cell membranes
[31] = test system: Staphylococcus aureus; assay: Antibacterial activity against Staphylococcus aureus ATCC 25923 pretreated with 5% mouse serum followed by compound addition and measured after 1 hr by broth microdilution method (reference value: 16 microM); format: functional, organism-based
[32] = test system: Cell membrane; assay: Induction of cytoplasmic membrane depolarization in Staphylococcus aureus ATCC 25923 assessed as increase in fluorescence intensity at 4 times MIC measured upto 12 min by DiSC3-5 dye based fluorescence method; format: cell membranes
[33] = test system: Staphylococcus aureus; assay: Antibacterial activity against Staphylococcus aureus ATCC 25923 pretreated with 2.5% mouse serum followed by compound addition and measured after 1 hrs by broth microdilution method (reference value: 16 microM); format: functional, organism-based
[34] = test system: Staphylococcus aureus; assay: Antibacterial activity against Staphylococcus aureus ATCC 25923 pretreated with FeCl3 followed by compound addition and measured after 2 hrs by broth microdilution method (reference value: 16 microM); format: functional, organism-based
[35] = test system: Pseudomonas aeruginosa; assay: Bactericidal activity against Pseudomonas aeruginosa ATCC 27853 assessed as assessed as eradication of bacterial cells at 2 to 4 times MIC measured after 0.5 hr by time killing analysis relative to control; format: functional, organism-based

Compound: CCCCCCCCCC(=O)N[C@H](CCCN)C(=O)N[C@H](Cc1ccc(O)cc1)C(=O)N[C@H](Cc1c[nH]c2ccccc12)C(=O)N[C@H](CCCN)C(=O)N[C@@H](CCCN)C(=O)NCC(=O)N[C@H](CCCN)C(=O)N[C@@H](Cc1c[nH]c2ccccc12)C(=O)N[C@H](C(=O)N[C@H](C(=O)NCC(=O)N[C@@H](CO)C(=O)O)[C@@H](C)CC)[C@@H](C)O
- MIC [1]: 32 µM (≈ 50.6 µg/mL)
- Activity [2]: Toxic
- Activity [3]: Active
- Activity [4]: Active
- fold change (FC) [5]: 2
- MIC [6]: 16 µM (≈ 25.3 µg/mL)
- Activity [7]: Active
- Activity [8]: Toxic
- MIC [9]: 8 µM (≈ 12.6 µg/mL)
- Activity [10]: Dose-Dependent Effect
- MIC [11]: 8 µM (≈ 12.6 µg/mL)
- Activity [12]: 100%
- Activity [13]: inactive
- Activity [14]: Toxic
- fold change (FC) [15]: 2
- survival at 144 h [16]: 12.5%
- MIC [17]: 16 µM (≈ 25.3 µg/mL)

Compound: CCC(C)CCC(=O)N[C@H](CC(N)=O)C(=O)N[C@H](Cc1ccc(O)cc1)C(=O)N[C@H](Cc1c[nH]c2ccccc12)C(=O)N[C@H](CCCN)C(=O)N[C@@H](CCCN)C(=O)NCC(=O)N[C@H](CCCN)C(=O)N[C@@H](Cc1c[nH]c2ccccc12)C(=O)N[C@@H]1C(=O)N[C@@H]([C@@H](C)CC)C(=O)NCC(=O)N[C@@H](CO)C(=O)O[C@@H]1C (stereo not given in full) ({Hexanoyl(4ξ-Me)}-[dN][dY][dW][dOrn][Orn]G[dOrn]WTIGS; ester 9-C)
- MIC [18]: 128 µM (≈ 195 µg/mL)
- Activity [19]: Active
- MIC [20]: 64 µM (≈ 97.3 µg/mL)
- Activity [21]: Active
- MIC [22]: 64 µM (≈ 97.3 µg/mL)
- MIC [23]: 64 µM (≈ 97.3 µg/mL)
- fold change (FC) [24]: 2
- fold change (FC) [25]: 2
- MIC [26]: 64 µM (≈ 97.3 µg/mL)
- Activity [27]: Active

Compound: POLYMYXIN B
- MIC [28]: 16 µM
- MIC [29]: 32 µM
- Activity [30]: Dose-Dependent Effect
- MIC [31]: 16 µM
- Activity [32]: inactive
- MIC [33]: 16 µM
- MIC [34]: 8 µM
- Activity [35]: 100%

— ChEMBL document CHEMBL5512645, “A novel antimicrobial peptide with broad-spectrum and exceptional stability derived from the natural peptide Brevicidine” (Eur J Med Chem, 2024)
